Experimental data reported in article PMC12261228 (ACS Pharmacology & Translational Science, 2025).
Like-named read-outs stand apart in the source and are kept apart here.

Tests used:
[1] = test system: K562; test: MTS cytotoxicity assay, 72 h; type: cell-based; settings: Homo sapiens, K562, 72 h, read-out: IC50 K562
[2] = test system: BJ; test: MTS cytotoxicity assay, 72 h; type: cell-based; settings: Homo sapiens, read-out: IC50 BJ
[3] = test system: HCT116p53–/–; test: MTS cytotoxicity assay, 72 h; type: cell-based; settings: read-out: IC50 HCT116p53–/–
[4] = test system: A549; test: MTS cytotoxicity assay, 72 h; type: cell-based; settings: Homo sapiens, Fig. S22
Method: Cell suspensions were prepared and diluted according to the particular cell type and the expected target cell density (500 – 4,000 cells/well). The cells (30 μL/well) were seeded to 384-well clear Corning plates by MultiDrop Combi (Thermo Fisher Scientific, USA). After 24 h the cells were treated with tested compounds as well as with vehicle (DMSO) and high controls (2.67 μM of Actinomycin D and 100 μM Mitomycin C) using contact-free acoustic liquid handler ECHO 555 (Labcyte, USA). Compounds were analyzed at a concentration range from 0.012 μM to 50 μM. Treated cells were incubated at 37 °C in a 5% CO2 atmosphere of a humidified incubator for 72 h. At the end of the incubation period, aliquots of the MTS (Promega) solution prepared according to manufacturer's instructions were added to cells (https://worldwide.promega.com/resources/protocols/technical-bulletins/0/celltiter-96-aqueous-nonradioactive-cell-proliferation-assay-protocol/). After 1 – 4 h of the incubation period, the optical density (OD) at 490 nm was measured on a multimode plate reader EnVision (PerkinElmer, USA). The experiments were performed in technical duplicates and at least three biological replicates. […] The assay quality was monitored by determining the Z′-factor for each 384-well plate. The resistance index (RI), representing the reduction in compound activity on resistant cell lines, was calculated as RI = (IC50 of resistant cell lines, CEM-DNR, K562-TAX)/(IC50 of nonresistant counterparts, CCRF-CEM, K562). Similarly, the selectivity index (SI), indicating preferential cytotoxicity toward tumor cell lines, was calculated as SI = (mean IC50 of nontumor cell lines, BJ and MRC5)/(mean IC50 of cancer cell lines without resistant variants, CCRF-CEM, K562, HCT116, HCT116p53–/–, U2OS).

[5] = test system: MRC-5; test: MTS cytotoxicity assay, 72 h; type: cell-based; settings: Homo sapiens, MRC5, 72 h, read-out: IC50 MRC-5
[6] = test system: U2OS; test: MTS cytotoxicity assay, 72 h; type: cell-based, human; settings: Homo sapiens, U2OS, 72 h
[7] = test system: CCRF-CEM; test: MTS cytotoxicity assay, 72 h; type: cell-based
[8] = test system: HCT116; test: MTS cytotoxicity assay, 72 h; type: cell-based; settings: Homo sapiens, HCT-116, 72 h, read-out: IC50 HCT116
[9] = test system: CEM-DNR; test: MTS cytotoxicity assay, 72 h; type: cell-based; settings: Homo sapiens, read-out: IC50 CEM-DNR
[10] = test system: K562-TAX; test: MTS cytotoxicity assay, 72 h; type: cell-based; settings: read-out: IC50 K562-TAX
[11] = test system: HUVEC; test: MTS cytotoxicity assay, 72 h; type: cell-based; settings: Homo sapiens, 3-day incubation, mean ± SD
[12] = test system: panel of cell lines
[13] = test system: CCRF-CEM lymphoblasts; test: FACS analysis of cell cycle, apoptosis, mitosis and polyploidy; settings: for Mitosis: phospho-Histone (Ser10); for Apoptosis: sub-G0/G1 DNA content, % of positive cells
[14] = MTS assay, 3-day incubation, mean ± SD
[15] = normal fibroblasts, MTS assay, 3-day incubation, mean ± SD
[16] = MTS assay, 3-day incubation, mean ± SD, read-out: IC50 U2OS
[17] = Homo sapiens, CCRF-CEM, 72 h, MTS assay, 3-day incubation, mean ± SD of 3 experiments, read-out: IC50 CCRF-CEM
[18] = daunorubicin-resistant, MTS assay, 3-day incubation, mean ± SD
[19] = paclitaxel-resistant, MTS assay, 3-day incubation, mean ± SD
[20] = read-out: IC50 U2OS, MTS assay, 3-day incubation, mean ± SD
[21] = Homo sapiens, CCRF-CEM, 72 h, read-out: IC50 CCRF-CEM, MTS assay, 3-day incubation, mean ± SD of 3 experiments

| Compound | IC50 [1, 14] [µM] | IC50 [2, 15] [µM] | IC50 [3, 14] [µM] | IC50 [4] [µM] | IC50 [5, 15] [µM] | IC50 [6, 16] [µM] | IC50 [7, 17] [µM] | IC50 [8, 14] [µM] | IC50 [11] [µM] | IC50 [1] [µM] | IC50 [2] [µM] | IC50 [3] [µM] | RI (resistance index) [12] | SI (selectivity index) [12] | IC50 [9] [µM] | IC50 [5] [µM] | IC50 [6, 20] [µM] | IC50 [7, 21] [µM] | G0/G1 ([13]; 1×IC50, 24 h) [%] | G2/M ([13]; 1×IC50, 24 h) [%] | also measured |
| --- | --- | --- | --- | --- | --- | --- | --- | --- | --- | --- | --- | --- | --- | --- | --- | --- | --- | --- | --- | --- | --- |
| CC1=CC(C)=[N+]2C1=C(CCC(=O)O)c1c(C)cc(C)n1[B-]2(F)F [B1] | > 50 | > 50 | > 50 | > 50 | > 50 | > 50 | > 50 | > 50 |  |  |  |  |  |  |  |  |  |  |  |  |  |
| CC1=CC(C)=[N+]2C1=C(CCCCCCCCCCC(=O)O)c1c(C)cc(C)n1[B-]2(F)F [B2] | > 50 | > 50 | > 50 | > 50 | > 50 | > 50 | > 50 | > 50 |  |  |  |  |  |  |  |  |  |  |  |  |  |
| CC1=CC(C)=[N+]2C1=C(CCCCBr)c1c(C)cc(C)n1[B-]2(F)F [B3, difluoro-1,3,5,7-tetramethyl-4-bora-3a,4a-diaza-s-indacene-8-yl)butyl bromide] | > 50 | > 50 | > 50 | > 50 | > 50 | > 50 | > 50 | > 50 |  |  |  |  |  |  |  |  |  |  |  |  | IC50 [9, 18]: > 50 µM; IC50 [10, 19]: > 50 µM |
| CC1=CC(C)=[N+]2C1=C(CCCCN)c1c(C)cc(C)n1[B-]2(F)F [B4] | > 50 | > 50 | > 50 | > 50 | > 50 | > 50 | 32.9 | > 50 |  |  |  |  |  |  |  |  |  |  |  |  | IC50 [9, 18]: > 50 µM; IC50 [10, 19]: > 50 µM |
| CNCCCCC1=C2C(C)=CC(C)=[N+]2[B-](F)(F)n2c(C)cc(C)c21 [B5] | > 50 | > 50 | > 50 | > 50 | > 50 | > 50 | 27.8 | > 50 |  |  |  |  |  |  |  |  |  |  |  |  | IC50 [9, 18]: 36.3 µM; IC50 [10, 19]: 35.8 µM |
| CC1=CC(C)=[N+]2C1=C(CCCCN(C)C)c1c(C)cc(C)n1[B-]2(F)F [B6] | > 50 | > 50 | > 50 | > 50 | > 50 | > 50 | > 50 | > 50 |  |  |  |  |  |  |  |  |  |  |  |  | IC50 [9, 18]: > 50 µM; IC50 [10, 19]: > 50 µM |
| COc1cc2c(c(OC)c1OC)-c1ccc(OC)c(=O)cc1[C@@H](NC(=O)CCCCCCCCCCC1=C3C(C)=CC(C)=[N+]3[B-](F)(F)n3c(C)cc(C)c31)CC2 [CB2] |  |  |  |  |  |  |  |  | 0.36 ± 0.035 | 0.19 ± 0.04 | > 50 | > 50 | 3.90 | >1.66 | 1.45 ± 0.06 | > 50 | > 50 | 0.33 ± 0.005 | 6.59 | 89.19 | cytotoxic activity across the cell line panel (in words) [12]: selectively killed/affected suspension cell lines; Polyploid cells ([13]; 1×IC50, 24 h): 23.67%; S ([13]; 1×IC50, 24 h): 4.22%; Mitosis ([13]; 1×IC50, 24 h): 45.60%; Apoptosis ([13]; 1×IC50, 24 h): 8.51%; G0/G1 ([13]; 5×IC50, 24 h): 5.2%; Polyploid cells ([13]; 5×IC50, 24 h): 26.18%; S ([13]; 5×IC50, 24 h): 1.29%; Mitosis ([13]; 5×IC50, 24 h): 79.51%; Apoptosis ([13]; 5×IC50, 24 h): 13.84%; IC50 [8]: > 50 µM; IC50 [10]: 0.58 ± 0.035 µM |
| COc1cc2c(c(OC)c1OC)-c1ccc(OC)c(=O)cc1[C@@H](NC(=O)CCCC[N+](C)(C)CCCCC1=C3C(C)=CC(C)=[N+]3[B-](F)(F)n3c(C)cc(C)c31)CC2 [CB3] |  |  |  |  |  |  |  |  | > 50 | 9.5 ± 2.37 | > 50 | 36.4 ± 5.03 | >4.79 | >1.83 | > 50 | > 50 | > 50 | 9.33 ± 0.952 | 2.89 | 79.08 | cytotoxic activity across the cell line panel (in words) [12]: significantly lower; apoptosis in CCRF-CEM cells ([13]; 1× and 5 × IC50, compared with DMSO): 20%; Polyploid cells ([13]; 1×IC50, 24 h): 26.03%; S ([13]; 1×IC50, 24 h): 18.03%; Mitosis ([13]; 1×IC50, 24 h): 58.58%; Apoptosis ([13]; 1×IC50, 24 h): 16.41%; G0/G1 ([13]; 5×IC50, 24 h): 7.84%; G2/M ([13]; 5×IC50, 24 h): 84.01%; Polyploid cells ([13]; 5×IC50, 24 h): 26.25%; S ([13]; 5×IC50, 24 h): 8.15%; Mitosis ([13]; 5×IC50, 24 h): 57.12%; Apoptosis ([13]; 5×IC50, 24 h): 20.64%; IC50 [8]: 31.6 ± 4.54 µM; IC50 [10]: 40.1 ± 1.07 µM |
| COc1cc2c(c(OC)c1OC)-c1ccc(OC)c(=O)cc1[C@@H](n1cc(CCCCCCCCC3=C4C(C)=CC(C)=[N+]4[B-](F)(F)n4c(C)cc(C)c43)[n+](C)n1)CC2 [CB8] |  |  |  |  |  |  |  |  | 23.5 ± 1.29 | 7.83 ± 0.892 | 36.9 ± 5.68 | 9.36 ± 0.87 | 0.86 | 3.28 | 6.53 ± 0.458 | 22.1 ± 1.22 | 11.9 ± 1.11 | 7.11 ± 1.14 | 8.68 | 80.01 | Polyploid cells ([13]; 1×IC50, 24 h): 23.43%; S ([13]; 1×IC50, 24 h): 11.31%; Mitosis ([13]; 1×IC50, 24 h): 5.79%; Apoptosis ([13]; 1×IC50, 24 h): 11.09%; G0/G1 ([13]; 5×IC50, 24 h): 9.49%; G2/M ([13]; 5×IC50, 24 h): 87.34%; Polyploid cells ([13]; 5×IC50, 24 h): 20.18%; S ([13]; 5×IC50, 24 h): 3.17%; Mitosis ([13]; 5×IC50, 24 h): 13.33%; Apoptosis ([13]; 5×IC50, 24 h): 3.98%; IC50 [8]: 8.81 ± 1.94 µM; IC50 [10]: 6.35 ± 0.335 µM |
| COc1cc(C2=C3C(C)=CC(C)=[N+]3[B-](F)(F)n3c(C)cc(C)c32)ccc1OCc1cn([C@H]2CCc3cc(OC)c(OC)c(OC)c3-c3ccc(OC)c(=O)cc32)n[n+]1C [CB9] |  |  |  |  |  |  |  |  | 40.1 ± 2.93 | 7.69 ± 0.45 | > 50 | 8.56 ± 0.365 | 0.98 | >3.15 | 6.49 ± 0.639 | > 50 | > 50 | 4.81 ± 0.641 | 12.83 | 60.07 | Polyploid cells ([13]; 1×IC50, 24 h): 29.32%; S ([13]; 1×IC50, 24 h): 27.11%; Mitosis ([13]; 1×IC50, 24 h): 32.84%; Apoptosis ([13]; 1×IC50, 24 h): 8.93%; G0/G1 ([13]; 5×IC50, 24 h): 19.56%; G2/M ([13]; 5×IC50, 24 h): 48.91%; Polyploid cells ([13]; 5×IC50, 24 h): 26.30%; S ([13]; 5×IC50, 24 h): 31.53%; Mitosis ([13]; 5×IC50, 24 h): 31.00%; Apoptosis ([13]; 5×IC50, 24 h): 14.27%; IC50 [8]: 8.27 ± 1.43 µM; IC50 [10]: 5.78 ± 0.561 µM |
| COc1cc2c(c(OC)c1OC)-c1ccc(NCCCCC3=C4C(C)=CC(C)=[N+]4[B-](F)(F)n4c(C)cc(C)c43)c(=O)cc1[C@@H](NC(C)=O)CC2 [CB10] |  |  |  |  |  |  |  |  | 32.3 ± 0.42 | 10.8 ± 0.431 | > 50 | > 50 | 1.45 | >1.63 | 11.1 ± 0.959 | > 50 | > 50 | 7.13 | 34.04 | 26.65 | cytotoxic activity across the cell line panel (in words) [12]: significantly lower; IC50 ([7]; read-out: IC50 CCRF-CEM, MTS assay, 3-day incubation, mean ± SD of 3 experiments): 7.11 ± 0.651 µM; Polyploid cells ([13]; 1×IC50, 24 h): 12.43%; S ([13]; 1×IC50, 24 h): 39.32%; Mitosis ([13]; 1×IC50, 24 h): 2.86%; Apoptosis ([13]; 1×IC50, 24 h): 3.87%; G0/G1 ([13]; 5×IC50, 24 h): 8.21%; G2/M ([13]; 5×IC50, 24 h): 62.62%; Polyploid cells ([13]; 5×IC50, 24 h): 25.51%; S ([13]; 5×IC50, 24 h): 29.17%; Mitosis ([13]; 5×IC50, 24 h): 36.02%; Apoptosis ([13]; 5×IC50, 24 h): 11.26%; IC50 [8]: 35.8 ± 5.91 µM; IC50 [10]: 14.8 ± 2.94 µM |
